Measured values published in patent US20100221709A1, “METHODS FOR IDENTIFYING AGENTS THAT MODULATE APOPTOSIS IN CELLS THAT OVER-EXPRESS A BCL-2 FAMILY MEMBER PROTEIN” (priority 2005, published 2010).

Legend:
[1] = system: myeloma cell lines (RPMI-8226, U266, NCI-H929); format: cell-based, human; details: 5 to 20 μg/ml
Protocol: Cell survival was assayed by exclusion of propidium iodide (PI) (10 mg/ml) by unfixed cells. Annexin V-FITC (Pharmingen) or 3,3′-dihexyloxacarbocyanine iodide (DiOC6(3)) (Molecular Probes) staining was analyzed together with PI to discriminate early apoptotic cells. Apoptotic cells were also measured as sub-G1 events among ethanol-fixed cells stained with […] PI. All cell samples were analyzed using a benchtop FACSCalibur® (Becton Dickinson, San Jose, Calif.) flow cytometer. Flow data were analyzed using MultiCycle AV software (Phoenix Flow Systems). For intracellular pH measurements, cell pellets were washed once and resuspended in 2 ml of HEPES-buffered medium (no phenol red and no serum). Carboxy-SNARF®-1 acetoxymethyl (AM) ester (Molecular Probes, 1 mM stock in DMSO, stored at −20° C.), a long wavelength fluorescent pH indicator, was added to a final concentration of 10 μM, and the cells were incubated for 30 min at 37° C. Following incubation with SNARF®-1 AM, cells were sedimented and the pellets were held on ice. Immediately before analysis, pellets were resuspended in Earle's balanced salt solution (experimental buffer) or high-[K^+] buffer containing nigericin (calibration samples).

NCI-H929 myeloma cells = test: [3H]-thymidine incorporation; format: cell-based, human
Protocol: (§1) RPMI-8226 cells were grown in 96 well plates for 24 h prior to addition of 2-methoxy antimycins. Antimycin stocks in dimethyl sulfoxide (DMSO) were serially diluted in RPMI. Cells were incubated for 48 h with compounds at final compound concentrations ranging from 10^−4 to 10^−8 M. MTT cell proliferation assays were performed in quadruplicate and percent growth inhibitions were calculated as (A570 (control cells)-A570 (treated cells))/A570 (control cells). GI50 was extrapolated from semi-log plots of the dose response for each compound. […] After 72 h drug exposures, 1 μCi/ml [^3H]-thymidine was added to wells. Cells were incubated for an additional 24 h, and then transferred to GF/C filter plates (Packard) using a plate washer. Filters were dried, added to scintillant, and counted in a TopCount® scintillation counter (Packard). Drug response is expressed as the percentage of vehicle-treated controls, and each value shown is the average of three determinations.

U266 myeloma cells = test: [3H]-thymidine incorporation; format: cell-based, human
Protocol: as §1

RPMI-8226 myeloma cells = test: [3H]-thymidine incorporation; format: cell-based, human
Protocol: as §1

Bcl-xLΔC20 = biological target: T1, Bcl-xLΔC20 (Homo sapiens, UniProt Q07817); test: Calcein leakage from large unilamellar vesicles (pore formation); format: biochemical; details: 12 μM
T1 construct: poly-His (N); made in house
Protocol: The Bcl-xL protein has reversible pore-forming activity. Recombinant human Bcl-xL lacking the C-terminal 20-residue membrane anchor sequence, Bcl-xLΔC20, forms pores in large unilamellar vesicles. A reporter, calcein, can leak out of the vesicles through these pores.
Large unilamellar vesicles composed of 60% dioleoylphosphatidylcholine and 40% oleoylphosphatidylglycerol were prepared by the extrusion method of Mayer et al. (Biochim. Biophys. Acta 858:161-168 (1986)). Briefly, a dry film of lipid was resuspended in an aqueous solution containing 40 mM calcein (Molecular Probes, Eugene, Oreg.), 25 mM KCl and 10 mM HEPES (pH 7.0). […] The size of the vesicle suspension was measured by a Coulter N4 Plus-Sizer to confirm that the mean diameter of the vesicle sample was close to the expected size (100 nm). The osmolalities of all solutions were measured in a cryoscopic osmometer (Wescor Inc., Logan, Utah) and adjusted to 0.21 Osmol/kg by the addition of sodium chloride, as necessary. Lipid concentration was measured as described previously (Stewart, Anal. Biochem. 104:10-14 (1989)).
Calcein leakage was determined by adding 2-4 μg of purified Bcl-xLΔC20 (5 μg/ml, 161 nM) to a solution of 100 mM NaCl, 10 mM HEPES (pH 5.0) containing the large unilamellar vesicles (50 μM final lipid concentration) described above. […]

[2] = system: TABX1A cells (Bcl-xL antisense); test: Cell viability by trypan blue dye exclusion; details: 2 μg/ml, without fructose, six hours
From the text: Briefly, a DNA fragment encoding the full-length mouse Bcl-xL cDNA was isolated from the plasmid pBS-BCL-xL (Tzung et al., Am. J. Path. 150:1985-1995 (1997), incorporated herein by reference in its entirety) by digestion with the restriction endonuclease EcoRI. This EcoRI fragment was cloned into the EcoRI site of the mammalian expression vector pSFFV (Fuhlbrigge et al., Proc. Nat. Acad. Sci. USA 85:5649-5653 (1988)) in both sense and antisense orientations, to form expression plasmids pSFFV-Bc/-xL-WT(sense) or pSFFV-Bc/-xL(antisense), respectively. The tumorigenic murine hepatocyte cell line TAMH was transfected by lipofection (Lipofectamine, Life Technologies, Rockville, Md., according to the manufacturer's recommendations) with the plasmids pSFFV-neo (the control), pSFFV-Bc/-xL-WT(sense) or pSFFV-Bc/-xL(antisense). Characterization of and culture conditions for the cell lines have been previously published (Wu et al., Proc. Nat. Acad. Sci. USA 91:674-78 (1994); Wu et al., Cancer Res. 54:5964-5973 (1994)). Transfectants were selected for the acquisition of neomycin resistance by growing cells in the presence of 750 μg/ml of G418. Bulk transfectants were cloned by limiting dilution and individual clones were screened by immunoblot analysis to determine the level of Bcl-xL, protein expression as described below.
Selected transfectants were then tested for whole cell sensitivity to several apoptotic agents. Transfected cells were cultured to reach approximately 80% confluency prior to plating an equal number of cells from selected clones on 12-well tissue culture plates. The transplanted cells were treated with the following apoptotic agents: 5 μM doxorubicin for 48 hours; 5 μM cisplatin for 48 hours; or with 200 U/ml tumor necrosis factor (TNF) plus 1 μg/ml actinomycin D for 18 hours. Cell viability was determined by trypan blue dye exclusion. The percentage of viable cells was calculated by the number of viable cells (treated with a particular apoptogenic agent) divided by the number in the control group (untreated). […]

T1 sequence (Q07817 1-213 limits assumed, stated change not applied): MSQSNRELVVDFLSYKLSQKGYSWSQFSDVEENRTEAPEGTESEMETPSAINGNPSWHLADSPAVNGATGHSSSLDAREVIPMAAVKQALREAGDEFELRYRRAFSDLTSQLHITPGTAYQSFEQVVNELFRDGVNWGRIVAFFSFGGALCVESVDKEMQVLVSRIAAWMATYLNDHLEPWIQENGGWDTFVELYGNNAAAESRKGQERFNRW

In the case of antimycin A, the “cytotoxicity, PI exclusion” value [1] is reported as “sensitive”, the “50% growth inhibition (GI50)” value (NCI-H929 myeloma cells) is reported as 0.2 µg/mL and the “50% growth inhibition (GI50)” value (U266 myeloma cells) is reported as 0.05 µg/mL. For the same substance, the “50% growth inhibition (GI50)” value (RPMI-8226 myeloma cells) was 0.1 µg/mL, the Bcl-xL pore-forming activity (Bcl-xLΔC20) was “completely blocked” and the survival [2] was 87%.
